Test results taken from article PMC12606464, “Investigating NFE2L1 activators for targeted protein aggregate clearance: a follow-up study” (RSC Medicinal Chemistry, 2025).
Peptide text beside a SMILES is read from it. * marks the point of attachment. Cbz = O=C(OCc1ccccc1)*

Experiments:
Assay type in all cases: cell-based, human
IRE1/XBP1s = assay: XBP1 endoplasmic reticulum stress reporter assay (CMV-XBP-GLuc); conditions: Figure S5; for Mean 2 (mean of log2-transformed values, treatment; DMSO = 0): N = 3; for Mean diff, DMSO vs. treatment (log2-transformed values): Dunnett's multiple comparisons test
Text: Next, we investigated whether the selected RUN compounds activate the NFE2L1 transcriptional program without triggering the unfolded protein response (UPR), a crucial cellular process induced by the accumulation of unfolded proteins in the endoplasmic reticulum (ER), potentially leading to ER stress. To monitor this, an alternative reporter was used to assess the activation of IRE1/XBP1s.[47] IRE1 is a bifunctional serine/threonine kinase and endoribonuclease embedded in the ER membrane, playing a central role in UPR signaling. Its RNase activity facilitates the splicing of X-box binding protein 1 (XBP1) mRNA. The spliced XBP1 acts as a transcription factor, promoting the re-establishment of ER homeostasis by upregulating genes involved in the ER-associated degradation (ERAD) pathway.[48–50] The reporter contains Gaussia luciferase positioned out of frame downstream of the XBP1 splice site, ensuring that active luciferase translation occurs only in the presence of ER stress.[51,52] Cells transfected with this reporter were treated with RUN compounds at 1, 5, and 10 μM, and luciferase activity was measured.
Figure S5: Impact of RUN compounds on ER stress-induced activation of the XBP1 reporter.
HEK293 cells were transfected with the CMV-XBP-GLuc reporter plasmid and allowed to stabilize overnight. Following stabilization, the cells were treated with MG132 or various concentrations of the test compounds (1, 2, 3, 5, 7.5, and 10 µM) for 16 hours. The Gaussia luciferase signal, which reflects XBP1 mRNA splicing, was adjusted based on cell viability as measured by the alamarBlue assay. Data are represented as Geomean ± GeoSD of three independent experiments ( n = 3. Statistical comparison of MG132 and RUN compounds vs DMSO and RUN compounds vs MG132 was performed on log2-transformed values using two-way repeated-measures ANOVA with Geisser –Greenhouse correction, followed by Dunnett’s multiple comparisons test with individual variances computed for each comparison. Results of the analysis are shown in Supplementary Table S15. […]
GraphPad Prism (v 10.6.1).
2.8 XBP1-endoplasmic reticulum (ER) stress reporter assay
HEK293 cells were seeded in 6-well plates and incubated for 24 hours before being transfected with a plasmid containing the CMV-XBP-Gluc reporter using Lipofectamine 2000.(4) After 6 hours, the transfected cells were subsequently transferred to 384-well plates, stabilized overnight, and treated with the proteasome inhibitor and ER stress inducer MG132 and/or various concentrations of RUN compounds (1, 5, and 10 µM) or vehicle (DMSO) for 16 hours. Luciferase activity was normalized to cell viability, which was assessed using the alamarBlue assay. The results are expressed as the fold change compared with the DMSO control, with the experiment conducted in biological triplicate. […]

NFE2L1 pathway = assay: 3×PSMA4-ARE-LUC dual luciferase reporter assay in HEK293 cells; conditions: Homo sapiens; 5 μM, 16 h, HEK293, luminescence relative to DMSO-treated cells; read-out: NFE2L1 activation [5 μM]
Text: In our previous work,[43] we developed a library of NFE2L1 stimulators using a cell-based luciferase reporter assay. This system was based on three tandem copies of the antioxidant response element (ARE) derived from the NFE2L1 target gene proteasome subunit alpha type-4 (3xPSMA4, PSMA4-ARE-LUC). It was designed to detect the proteasome “bounce-back” response induced by proteasome inhibitors such as MG132 or bortezomib.[22,43,45,46] The reporter assay was adapted to a 384-well format and used to evaluate a new set of RUN compounds designed around the structural framework of the RUN-47 activator. We focused on identifying compounds that increased the 3×PSMA4-ARE-LUC signal (Fig. 1A), while simultaneously assessing cytotoxicity (see the SI, Fig. S2). […] In contrast, thiourea- and urea-containing derivatives generally produced only weak to intermediate responses, rarely exceeding a fold change of 7.
Fig. 1 (A) Targeted library screening of RUN compounds using the 3×PSMA4-ARE-LUC dual reporter assay in HEK293 cells. Cells were exposed to RUN compounds (5 μM) for 16 hours, and luciferase activity was measured. Data are presented as the mean ± SD from three independent experiments (n = 3). Results are shown as a fold change in luminescence relative to DMSO-treated cells. Selected hit compounds are highlighted in distinct colours. (B) RUN-89 specifically activates the NFE2L1 pathway. The DDI2 knockout (KO) and parental (WT) HCT116 cells were transfected with the 3×PSMA4-ARE-LUC reporter and treated with 0.5 μM bortezomib (BTZ) and 5 μM RUN-89 for 16 hours. Data are presented as the Geomean ± GeoSD of three independent experiments (n = 3). Statistical analysis was performed on log2-transformed values using two-way repeated-measures ANOVA followed by Šídak's multiple comparison test. (C) RUN-89 selectively triggers downstream signaling events associated with NFE2L1 gene expression. HEK293 cells were transfected with lipid nanoparticles (LNPs) carrying siRNAs targeting NFE2L1 or NFE2L2. LNPs formulated with non-targeting siRNA served as a negative control. Following 24 hours of incubation, cells were treated with 7.5 μM RUN-89 or DMSO (vehicle) for an additional 16 hours. Expression of the proteasomal subunit gene PSMC4 was then quantified by RT-qPCR. Data are shown as the Geomean ± GeoSD from three independent biological replicates (n = 3). Log2-transformed data were analyzed using two-way repeated-measures ANOVA with the Geisser–Greenhouse correction, followed by Tukey's multiple comparison test with individual variances computed for each comparison. Additional results for NFE2L1, NFE2L2, PSMB7, and PSMD12 are presented in SI Fig. S10.
Figure S1: Concentration–response of luciferase cell-based assay (PSMA4-ARE-luc2P reporter) on treatment with RUN-81, RUN-89, and RUN-94. Concentration is plotted on the X-axis. Dose–response relationships were analyzed using a four-parameter logistic curve (4PL), or a bell-shaped dose-response curve, both with weighting 1/Y^2. Dotted lines represent 95% confidence bands. Calculated EC₅₀ values, curve parameters, and asymmetrical confidence intervals are summarized in the accompanying table . Data are presented as mean ± SD from four independent experiments (n=4).
(§1) 2 Biology Experimental Procedures
(§2) Safety statement: No unexpected or unusually high safety hazards were encountered. […]
Most of the cell lines were cultured in Dulbecco's Modified Eagle Medium (DMEM) enriched with 10% fetal bovine serum (FBS) and 2 mM L-glutamine, under standard conditions of 37 °C with 5% CO₂. DNA transfection was performed with Lipofectamine 2000, following the manufacturer's instructions. Transgenic cells were then selected with either G418 (400 µg/mL) or hygromycin B (450 µg/mL), based on the selection marker encoded by the plasmid used. Cell viability was evaluated using the […]

HEK293 cells = assay: alamarBlue cytotoxicity assessment in HEK293 cells; conditions: HEK293, alamarBlue, 16 h; concentration not given
Method: Figure S2: Concentration-dependent cytotoxicity assessment of RUN compounds.
HEK293 cells were treated for 16 hours with increasing concentrations of RUN compounds (1.25 µM; 2.5 µM; 5; 7.5 and 10 µM) or DMSO (negative control). Cell viability was determined using the alamarBlue assay following the protocol of Riss.(1) Data are presented as means ± SD from three independent experiments (n = 3). Statistical analysis was done using repeated measures one-way ANOVA with Geisser–Greenhouse correction, followed by Dunnett’s multiple comparisons test. *p<0.05. Detailed results of the analysis are shown in […]
(1 picture or pasted object on this page, not shown here)
as §1, §2
Cell lines were sourced from the ATCC (USA) and/or ECACC (UK), namely HCT116 (human colorectal carcinoma), ATCC CCL-247 (RRID:CVCL_0291), HEK-293 (human embryonic kidney), ATCC CRL-1573 (RRID:CVCL_0045), SH-SY5Y (human neuroblastoma), ATCC CRL-2266 (RRID:CVCL_0019). The characteristics of DDI2 knockout cells derived from HCT116 cells have been described previously (Sedlacek et al., 2025). All cell lines were tested for mycoplasma contamination. Most of the cell lines were cultured in Dulbecco's Modified Eagle Medium (DMEM) enriched with 10% fetal bovine serum (FBS) and 2 mM L-glutamine, under standard conditions of 37 °C with 5% CO₂. DNA transfection was performed with Lipofectamine 2000, following the manufacturer's instructions. Transgenic cells were then selected with either G418 (400 µg/mL) or hygromycin B (450 µg/mL), based on the selection marker encoded by the plasmid used. […]

SNCA-EGFP = SNCA-EGFP degradation in SH-SY5Y cells
Method: This reporter is prone to aggregation because of its slow protein turnover. To assess compound efficacy, we measured the fluorescence signal of GFP-tagged synuclein within aggregates.
The GFP fluorescence signal was then normalized to that of the DMSO control and the cell number. The experiment was performed in at least five biological replicates. Statistical analysis was performed using paired t-tests with Holm–Šídák correction for multiple comparisons (α = […]
SH-SY5Y cells stably expressing SNCA-EGFP were seeded on a plate and allowed to […]
tadalafil (5 µM), or RUN compounds at a concentration of 1 µM or treated with an equivalent volume of DMSO dissolved in buffer as a vehicle control. The treatment was performed for 16 hours and then fluorescence was measured. The GFP signal intensity was normalized to both the DMSO control and the cell count.

[1] = SH-SY5Y, SNCA-EGFP degron, Figure S7

SMILES | fold induction at 5 µM (NFE2L1 pathway) | Tox [% of ctrl.] (HEK293 cells) | also measured
CC(C)C[C@@H](C=O)NC(=O)[C@H](CC(C)C)NC(=O)[C@H](CC(C)C)NC(=O)OCc1ccccc1 [MG132] (Cbz-Leu-Leu-Leu-aldehyde) |  |  | Mean 2 (mean of log2-transformed values, treatment; DMSO = 0) (IRE1/XBP1s; 1 µM): 2.106; Mean 2 (mean of log2-transformed values, treatment; DMSO = 0) (IRE1/XBP1s; 5 µM): 2.725; Mean 2 (mean of log2-transformed values, treatment; DMSO = 0) (IRE1/XBP1s; 10 uM): 3.956; Mean diff, DMSO vs. treatment (log2-transformed values) (IRE1/XBP1s; DMSO vs. 1 µM): -2.106; Mean diff, DMSO vs. treatment (log2-transformed values) (IRE1/XBP1s; DMSO vs. 5 µM): -2.725; Mean diff, DMSO vs. treatment (log2-transformed values) (IRE1/XBP1s; DMSO vs. 10 uM): -3.956
COc1ccc(/C=C2\CN(C(=O)Cn3ccnc3)C/C(=C\c3ccc(OC)c(OC)c3)C2=O)cc1OC [RUN-111] | 2.7 | 78% of ctrl. | 
COc1ccc(/C=C2\CN(C(=O)CN3CCOCC3)C/C(=C\c3ccc(OC)c(OC)c3)C2=O)cc1OC.O=C(O)C(F)(F)F [RUN-112] | 6.6 | 81% of ctrl. | 
COc1ccc(/C=C2\CN(C(=O)C3CCCN3)C/C(=C\c3ccc(OC)c(OC)c3)C2=O)cc1OC (centres unmarked) [RUN-113] | 3.8 | 94% of ctrl. | 
COc1ccc(/C=C2\CN(C(=O)CCN(C)C)C/C(=C\c3ccc(OC)c(OC)c3)C2=O)cc1OC.O=C(O)C(F)(F)F [RUN-114] | 3.1 | 92% of ctrl. | 
COc1ccc(/C=C2\CN(C(=O)CCCN)C/C(=C\c3ccc(OC)c(OC)c3)C2=O)cc1OC [RUN-115] | 1.8 | 85% of ctrl. | 
CCN(CC)CC(=O)N1C/C(=C\c2ccc(OC)c(OC)c2)C(=O)/C(=C/c2ccc(OC)c(OC)c2)C1.O=C(O)C(F)(F)F [RUN-116] | 3.1 | 78% of ctrl. | 
COc1ccc(/C=C2\CN(C(=O)CCN)C/C(=C\c3ccc(OC)c(OC)c3)C2=O)cc1OC [RUN-117] | 1 | 83% of ctrl. | 
CN1CC(=O)N2[C@H](c3ccc4c(c3)OCO4)c3[nH]c4ccccc4c3C[C@@H]2C1=O [tadalafil, reference compound] |  |  | EGFP-SNCA aggregation (GFP signal) (SNCA-EGFP; SH-SY5Y SNCA-EGFP, 16 h, RUN compounds 1 μM, PD169316 3 μM, tadalafil 5 μM): reduction; Geometric mean of ratios (paired t tests, Treatment vs Control = 100) (SNCA-EGFP; [1]): -20.51; Geometric mean, Treatment (Control = 100) (SNCA-EGFP; [1]): 79.49
